Measurements: patent US10519177B2, “Heterocyclic compounds and uses thereof” (Plexxikon Inc., priority 2013, dated 2019)

tested on: bromodomain; test: at least one of the bromodomain cell assays of Example 57; assay type: cell-based; conditions: at least one of the bromodomain cell assays described in Example 57; read-out: IC50 in at least one of the bromodomain cell assays

IC50 [µM] | Structure (SMILES)
< 10 | Cc1ccc(-c2cn([C@@H](c3ccccn3)C3CCCCC3)c3cc(-c4c(C)noc4C)cnc23)cc1 [P-0817, 4-[1-[(R)-cyclohexyl(2-pyridyl)methyl]-3-(p-tolyl)pyrrolo[3,2-b]pyridin-6-yl]-3,5-dimethyl-isoxazole]
< 10 | Cc1noc(C)c1-c1ccc2c(-c3ccc(C(=O)O)cc3)cn(CC3(C)CCCCC3)c2c1 [P-0779, 4-[6-(3,5-dimethylisoxazol-4-yl)-1-[(1-methylcyclohexyl)methyl]indol-3-yl]benzoic acid]
< 10 | Cc1noc(C)c1-c1cnc2c(-c3ccc(C(=O)O)cc3)cn(C(c3ccccc3)c3ccccc3)c2c1 [P-0620, 4-[1-benzhydryl-6-(3,5-dimethylisoxazol-4-yl)pyrrolo[3,2-b]pyridin-3-yl]benzoic acid]
< 10 | Cc1noc(C)c1-c1cnc2c(-c3ccc(S(C)(=O)=O)cc3)cn(CC3CCC(F)(F)CC3)c2c1 [P-0619, 4-[1-[(4,4-difluorocyclohexyl)methyl]-3-(4-methylsulfonylphenyl)pyrrolo[3,2-b]pyridin-6-yl]-3,5-dimethyl-isoxazole]
< 10 | Cc1noc(C)c1-c1cnc2[nH]cc(C(c3ccccc3)c3ccccc3)c2c1 [P-0738, 4-(3-benzhydryl-1H-pyrrolo[2,3-b]pyridin-5-yl)-3,5-dimethyl-isoxazole]
< 10 | Cc1nnn(C)c1-c1cnc2c(-c3ccc(CC(=O)O)cc3)cn(CC3(F)CCC(F)(F)CC3)c2c1 [P-0812, 2-[4-[6-(3,5-dimethyltriazol-4-yl)-1-[(1,4,4-trifluorocyclohexyl)methyl]pyrrolo[3,2-b]pyridin-3-yl]phenyl]acetic acid]
< 10 | Cc1noc(C)c1-c1cnc2c(-c3ccc(C(=O)O)cc3)cn(CC3CCCCO3)c2c1 (centres unmarked) [P-0768, 4-[6-(3,5-dimethylisoxazol-4-yl)-1-(tetrahydrpyran-2-ylmethyl)pyrrolo[3,2-b]pyridin-3-yl]benzoic acid]
< 10 | Cc1cc(-c2cnc3c(-c4ccc(C(=O)OC(C)(C)C)cc4)cn(CC4CCC(F)(F)CC4)c3c2)cn(C)c1=O [P-0612, tert-butyl 4-[1-[(4,4-difluorocyclohexyl)methyl]-6-(1,5-dimethyl-6-oxo-3-pyridyl)pyrrolo[3,2-b]pyridin-3-yl]benzoate]
< 10 | Cc1noc(C)c1-c1cnc2c(-c3ccc4c(c3)CCOC4=O)cn(CC3CCC(F)(F)CC3)c2c1 [P-0798, 6-[1-[(4,4-difluorocyclohexyl)methyl]-6-(3,5-dimethylisoxazol-4-yl)pyrrolo[3,2-b]pyridin-3-yl]isochroman-1-one]
< 10 | CCOC(=O)c1ccc(-c2cn(CC3CCCCC3)c3cc(-c4c(C)noc4C)cnc23)cc1 [P-0707, ethyl 4-[1-(cyclohexylmethyl)-6-(3,5-dimethylisoxazol-4-yl)pyrrolo[3,2-b]pyridin-3-yl]benzoate]
< 10 | Cc1cc(-c2cnc3c(-c4ccc(C(=O)O)cc4)cn([C@@H](C)c4ccccn4)c3c2)cn(C)c1=O [P-0761, 4-[6-(1,5-dimethyl-6-oxo-3-pyridyl)-1-[(1S)-1-(2-pyridyl)ethyl]pyrrolo[3,2-b]pyridin-3-yl]benzoic acid]
< 10 | Cc1noc(C)c1-c1cnc2c(-c3ccc(P(=O)(O)O)cc3)cn(CC3CCCCC3)c2c1 [P-0701, [4-[1-(cyclohexylmethyl)-6-(3,5-dimethylisoxazol-4-yl)pyrrolo[3,2-b]pyridin-3-yl]phenyl]phosphonic acid]
< 10 | Cc1noc(C)c1-c1cnc2c(-c3ccc4c(c3)CCOC4=O)cn(CC3CCCCC3)c2c1 [P-0799, 6-[1-(cyclohexylmethyl)-6-(3,5-dimethylisoxazol-4-yl)pyrrolo[3,2-b]pyridin-3-yl]isochroman-1-one]
< 10 | Cn1cc(-c2ccc3c(-c4ccc(C(=O)O)cc4)cn(CC4CCCCC4)c3c2)cc(Cl)c1=O [P-0763, 4-[6-(5-chloro-1-methyl-6-oxo-3-pyridyl)-1-(cyclohexylmethyl)indol-3-yl]benzoic acid]
